Patent US10358469B2, “Methods and pharmaceutical compositions for the treatment of cancer” (INSERM (INSTITUT NATIONAL DE LA SANTÉ ET DE LA RECHERCHE …, priority 2014, dated 2019)

Tests used:
[1] = test system: leukemic cells isolated from hMRP8-PML/RARα transgenic mice; assay: Acute promyelocytic leukemia (APL) mouse model, survival; type: in vivo
Experimental: FIG. 9: Antp-AAC-11-LZ (363-399) peptide treatment of leukemic mice protects against disease progression. Mice were challenged with 10^4 leukemic cells isolated from hMRP8-PML/RARα transgenic mice, allowed to engraft for 10 d, and were then injected intraperitonaly each day for 7 consecutive days with Antp-AAC-11-LZ (363-399) peptide (1.8 mg/kg) or vehicle (normal saline solution), or subcutaneously implanted with a 21-d release pellet containing 5 mg ATRA (n=6 for each treatment). Mice were monitored for survival.
We use an established in vivo APL model based on syngenic grafts of leukemic blasts from hMRP8-PML/RARα transgenic mice, as described by Brown et al. (Brown et al., 1997). This model mimics human APL, both in its biological characteristics and its response to conventional therapeutic drugs such as all-trans retinoic acid (ATRA) and 100% of the mice die of the disease (Brown et al., 1997; Kogan et al., 2000; Lallemand-Breitenbach et al., 1999). […] leukemic cells isolated from bone marrow, spleen, or lymph nodes of leukemic hMRP8-PML/RARα transgenic mice (Brown et al., 1997) were injected into the tail vein of 6-7 week old syngeneic FVB/N mice. Establishment of leukemia was assessed by the appearance of high leukocyte and low platelet counts at around day 8 (Brown et al., 1997). Ten days after transplantation, mice implanted with leukemic cells were randomly assigned to either type of treatment (n=6). Antp-AAC-11-LZ (363-399) peptide (1.8 mg/kg) or vehicle (normal saline solution) was injected intraperitonaly each day for 7 consecutive days. Retinoic acid was administrated by subcutaneous implantation of a 21-d release pellet containing 5 mg ATRA (Innovative Research of America). Mice were then monitored for survival.

[2] = test system: normal cells (HaCat, NCTC and human primary fibroblasts); assay: Cell viability (MTT) of normal cells; type: cell-based; conditions: increasing concentrations, 24 hours, FIG. 1B
solid tumor cell lines = assay: Cell viability (MTT) of an array of solid tumor cell lines under low serum; type: cell-based; conditions: increasing concentrations, 24 hours, low serum conditions, FIG. 1B
Experimental: (A) Karpas 1106, SU-DHL-5, SeAx and HUT-78 cells were plated at a densities of 6×10^3 in 96 well plates (100 μL total volume per well) and treated for 24 hours in a 37° C. incubator (5% CO2) with increasing concentrations of the Antp-AAC-11-LZ (363-399). 20 μL MTS reagent was then added to each well and plates were incubated for an additional 4 hours. Absorbance was measured at 490 nm using a 96-well plate reader. The extent to which the Antp-AAC-11-LZ (363-399) peptide inhibited cell proliferation was calculated as a percentage of the absorbance in each well containing the Antp-AAC-11-LZ (363-399) peptide relative to wells containing no peptide (negative control). […]
Viability of cells cultured in the 96-well culture plates was assessed by measuring mitochondrial dehydrogenase activity, using the colorimetric CellTiter 96® AQueous One Solution Cell Proliferation Assay (Promega), according to the manufacturer′ instructions. […] The color can then be quantified using a simple colorimetric assay. The results are read on a multiwall scanning spectrophotometer (ELISA reader).
The inventors evaluated the capacity of the Antp-AAC-11-LZ (363-399) peptide to induce cell death a panel of hematologic and solid tumor cell lines, both P53 positive and P53 negative, derived from different tissues of origin, under low serum conditions (0.5-5%). […]

[3] = Toxicity of peptide injection in nude mice; conditions: i.p. twice per week for 4 weeks
Experimental: Nude mice were injected intraperitoneally twice a week for 4 weeks with normal saline solution or the indicated doses of Antp-AAC-11-LZ (363-399) peptide (n=3-4 mice per group) and were monitored daily for body weight (mean±s.e.m).
Nude mice were injected intraperitoneally twice a week for 4 weeks with normal saline solution or the indicated doses of Antp-AAC-11-LZ (377-399) peptide (n=3-4 mice per group) and were monitored daily for body weight (mean±s.e.m).
We first evaluated the toxicity of the Antp-AAC-11-LZ (363-399) peptide in nude mice that were injected intraperitoneally twice per week for 4 weeks with the Antp-AAC-11-LZ (363-399) peptide or normal saline solution (dose range: 0.8-4.8 mg peptide/kg body weight; n=3-4 mice per group).
We first evaluated the toxicity of the Antp-AAC-11-LZ (377-399) peptide in nude mice that were injected intraperitoneally twice per week for 4 weeks with the Antp-AAC-11-LZ (377-399) peptide or normal saline solution (dose range: 1-6 mg peptide/kg body weight; n=3-4 mice per group).

D3H2LN cells = assay: Proliferation of D3H2LN cells (not showed); type: cell-based

Substance: Ac-RQIKIWFKKQNRRMKWKKAKLNAEKLKDFKIRLQYFARGLQVYIRQLRLALQGKT-NH2 [Antp-AAC-11-LZ (363-399)]
- mice surviving up to 67 d ([1]; n=6 per treatment): Four of 6
- mice surviving up to 76 d ([1]; n=6 per treatment): 2
- mean survival time ([1]; peptide 1.8 mg/kg i.p. daily for 7 days, ATRA 5 mg 21-d release pellet s.c., from day 10 after graft, n=6): 68.5 days
- toxicity in normal cells [2]: much reduced toxicity
- cell viability loss of the cancer cell lines (solid tumor cell lines): marked cell viability loss
- mortality ([3]; 0.8-4.8 mg peptide/kg body weight): No mice died
- body weight difference between groups ([3]; 0.8-4.8 mg peptide/kg body weight, FIG. 8A): no significant difference
- toxicity to kidney, lungs, heart, liver, pancreas and spleen ([3]; 0.8-4.8 mg peptide/kg, end of experiment): no obvious toxicity
- proliferation at the concentrations used for migration (D3H2LN cells): neither the Antp-AAC-11-LZ (363-399) or TAT-AAC-11-LZ (363-399) peptides impaired proliferation
